Results: patent publication US20250354151A1, “INHIBITORY AGENT FOR MYOCARDIAL CELL DEATH, AND PROPHYLACTIC OR THERAPEUTIC AGENT FOR MYOCARDIAL DISORDERS OR HEART FAILURE” (KYOTO PREFECTURAL PUBLIC UNIVERSITY CORPORATION, priority 2022, published 2025)

Key:
[1] = tested on: iPS cell-derived cardiomyocytes; assay: Oxygen consumption measurement (Seahorse XF Cell Mito Stress Test); type: cell-based, human; conditions: doxorubicin 1 μM for 3 hours vs 0 μM; FIG. 7
Method: TAOK1 knock-out cells were obtained from the iPS cell-derived cardiomyocytes in a similar manner as in Test Example 2-1. The obtained cells were treated with the doxorubicin at 0 μM or 1 μM for 3 hours, and oxygen consumption was measured using a Seahorse XFe 96 Flux Analyzer (Agilent) and a Seahorse XF Cell Mito Stress Test Kit (Agilent).

[2] = tested on: iPS cell-derived cardiomyocytes; assay: Viability of cardiomyocytes after treatment with the TAOK1 inhibitor and doxorubicin (PrestoBlue); type: cell-based, human; conditions: C43 final concentration 10 nM, added simultaneously with doxorubicin; measured 3 days later; FIG. 4
Method: The iPS cell-derived cardiomyocytes were seeded on the 96-well plate coated with the growth factor reduced matrigel, after 5 days or more from the seeding, the TAOK1 inhibitor C43 (MedChemExpress) and the doxorubicin were simultaneously added, and 3 days later, the cell viability was measured with SpectraMaxM2e using the PrestoBlue reagent.

Compound | oxygen consumption of the cardiomyocytes [1] | cell viability (myocardial cell death caused by the doxorubicin) [2]
COc1cccc2c1C(=O)c1c(O)c3c(c(O)c1C2=O)C[C@@](O)(C(=O)CO)C[C@@H]3O[C@H]1C[C@H](N)[C@H](O)[C@H](C)O1 [doxorubicin] | significantly reduced | –
O=C(CNC(=O)c1ccc(-c2ccccc2)cc1)NC1CCCc2ccccc21 (centres unmarked) [Entry C43, N-[2-oxo-2-(1,2,3,4-tetrahydronaphthalen-1-ylamino)ethyl]biphenyl 4-carboxamide] | – | inhibit the myocardial cell death caused by the doxorubicin
